In PubChem BioAssay (NCI):
Several values for one entry are separate records, joined by “and”; a condition that tells them apart may be missing. Equal values may be shown once.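 1) Cells in 96-well plates. 2) Compound, 48 h, 5 concentrations. 3) Linear interpolation between surrounding doses. 4) Unreached endpoint = highest concentration. GI50: concentration for 50% inhibition of growth. TGI is the concentration that stops growth completely.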

Legend:
Test in all cases: NCI anticancer screen, dose series, 48 h
LOX IMVI melanoma = test system: LOX IMVI melanoma
COLO 205 colon = test system: COLO 205 colon
A498 renal = test system: A498 renal
KM12 colon = test system: KM12 colon
SK-OV-3 ovarian = test system: SK-OV-3 ovarian
NCI-H460 lung = test system: NCI-H460 lung
CCRF-CEM leukemia = test system: CCRF-CEM leukemia
MDA-N = test system: MDA-N
RPMI-8226 leukemia = test system: RPMI-8226 leukemia
EKVX NSCLC = test system: EKVX NSCLC
M14 melanoma = test system: M14 melanoma
HCT-15 colon = test system: HCT-15 colon
SF-295 CNS = test system: SF-295 CNS
MCF7 breast = test system: MCF7 breast
HT29 colon = test system: HT29 colon
MDA-MB-435 = test system: MDA-MB-435
T-47D breast = test system: T-47D breast
UO-31 renal = test system: UO-31 renal

SMILES | TGI (LOX IMVI melanoma) | TGI (COLO 205 colon) [µM] | TGI (A498 renal) | TGI (KM12 colon) | TGI (SK-OV-3 ovarian) [µM] | TGI (NCI-H460 lung) [µM] | TGI (CCRF-CEM leukemia) [µM] | TGI (MDA-N) [µM] | TGI (RPMI-8226 leukemia) [µM] | TGI (EKVX NSCLC) | TGI (M14 melanoma) | TGI (HCT-15 colon) [µM] | TGI (SF-295 CNS) [µM] | TGI (MCF7 breast) | TGI (HT29 colon) [µM] | TGI (MDA-MB-435) | TGI (T-47D breast) | TGI (UO-31 renal) | GI50 (LOX IMVI melanoma) [µM] | GI50 (MDA-MB-435) [µM]
CC(C)C(=O)CP(=O)(O)O | > 100 µM | > 100 | > 100 µM | > 100 µM | > 100 | > 100 | > 100 | > 100 | > 100 | 46.1 µM | > 100 µM | > 100 | > 100 | > 100 µM | > 100 | > 100 µM | > 100 µM | – | – | –
OCC(O)C(O)C(C=NNc1ncnc2ccc(Br)cc12)=NNc1ncnc2ccc(Br)cc12 (stereo not drawn) | 14.9 µM and > 100 µM | > 100 | 18 µM and 75.2 µM | 69 µM and > 100 µM | > 100 | – | – | > 100 | > 100 | 20.9 µM and > 100 µM | 4.91 µM and 17.4 µM | – | > 100 | 35 µM and > 100 µM | > 100 | 76.9 µM and > 100 µM | 16.1 µM and > 100 µM | 25.6 µM and > 100 µM | – | –
CCCC(=O)OC1=C(c2ccccc2)Sc2ccccc2-n2cccc21 | > 10 µM | > 10 | – | > 10 µM | > 10 | – | > 10 | > 10 | > 10 | > 10 µM | > 10 µM | > 10 | > 10 | > 10 µM | > 10 | > 10 µM | > 10 µM | – | – | –
CC(C)[C@H]1NC(=O)[C@H]2N=C(O[C@@H]2C)[C@@H]2CCCN2C(=O)[C@H](Cc2ccccc2)NC(=O)[C@@H]2COC(=N2)[C@@H](Cc2ccccc2)NC(=O)[C@@H]2COC1=N2 | > 100 µM | > 100 | – | > 100 µM | > 100 | – | > 100 | > 100 | > 100 | > 100 µM | > 100 µM | > 100 | > 100 | > 100 µM | > 100 | > 100 µM | > 100 µM | > 100 µM | – | –
CCN(CC)c1ccc2cc(-c3csc(-c4ccc(N(C)C)cc4)n3)c(=O)oc2c1 | > 100 µM | > 100 | – | > 100 µM | > 100 | > 100 | > 100 | > 100 | > 100 | > 100 µM | > 100 µM | > 100 | > 100 | > 100 µM | > 100 | > 100 µM | > 100 µM | > 100 µM | – | –
Cc1ccc(NCc2nnc3c(-c4ccccc4)nc4ccccc4n23)cc1 | 71.1 µM | 86.6 | > 100 µM | > 100 µM | > 100 | > 100 | > 100 | > 100 | – | 84.1 µM | > 100 µM | > 100 | > 100 | > 100 µM | > 100 | > 100 µM | 9.62 µM | – | – | –
N=c1oc2ccc(Cl)cc2cc1C(=O)NC1CCCCC1 | > 100 µM | > 100 | > 100 µM | > 100 µM | > 100 | > 100 | > 100 | > 100 | > 100 | – | > 100 µM | > 100 | – | > 100 µM | > 100 | > 100 µM | > 100 µM | – | – | –
C[Si](C)(C)C#CCOC=C1CC1 | > 100 µM | > 100 | – | > 100 µM | > 100 | > 100 | > 100 | > 100 | – | > 100 µM | > 100 µM | > 100 | > 100 | > 100 µM | > 100 | – | > 100 µM | > 100 µM | – | –
Cc1cccc(/C=C2\CCCCCC2=O)c1 | > 100 µM | > 100 | > 100 µM | > 100 µM | > 100 | > 100 | 82.8 | > 100 | > 100 | > 100 µM | > 100 µM | > 100 | > 100 | – | > 100 | > 100 µM | > 100 µM | > 100 µM | – | –
O=C(CC(C(=O)c1cccs1)c1ccccc1)c1ccccc1O (stereo not drawn) | > 47.4 µM | > 100 | – | > 100 µM | > 100 | > 100 | > 100 | > 100 | > 100 | > 100 µM | > 100 µM | > 100 | > 27.9 | > 38.7 µM | > 100 | – | > 40 µM | > 100 µM | – | –
O=c1cc(-c2cccc(Br)c2)[nH]c2cc3c(cc12)OCO3 | 17.4 µM | > 100 | 13.8 µM | 25.4 µM | 17 | 24.8 | > 100 | 2 | > 100 | – | 24.5 µM | > 77.6 | 6.52 | > 100 µM | > 83.3 | 3.02 µM | 36.5 µM | 37.9 µM | – | –
C=C(C)COC(=O)COCC(=O)OCC(=C)C | – | > 100 | > 100 µM | > 100 µM | > 100 | > 100 | > 100 | > 100 | > 100 | > 100 µM | > 100 µM | > 100 | > 100 | > 100 µM | > 100 | > 100 µM | > 100 µM | > 100 µM | – | –
CC(=O)Oc1ccc2c3c1[C@@H]1O[C@@H]1c1cccc(c1-3)[C@@H]1O[C@H]21 | 2.02 µM | 4.36 | 6.57 µM | 4.47 µM | 9.71 | – | 3.94 | 3.32 | – | – | 3.27 µM | – | 3.83 | > 100 µM | – | 3.38 µM | 5.42 µM | 2.91 µM | 0.65 | 1.79
CC(C)=C=CC(C)(C)NS(=O)(=O)NC(C)(C)C=C=C(C)C | > 100 µM | > 100 | > 100 µM | > 100 µM | > 100 | > 100 | – | > 100 | – | > 100 µM | > 100 µM | > 100 | > 100 | > 100 µM | > 100 | > 100 µM | > 100 µM | – | – | –
CN1C(=O)C(O)C[C@@H]1c1ccc(F)cc1 (stereo partly drawn) | > 100 µM | > 100 | – | – | > 100 | – | > 100 | > 100 | > 100 | > 100 µM | > 100 µM | > 100 | > 100 | > 100 µM | > 100 | > 100 µM | > 100 µM | > 100 µM | – | –
